From patent publication US20260284011A1, “COMPOUNDS FOR RESTORING SUSCEPTIBILITY TO BETA-LACTAM ANTIBIOTICS” (UNIVERSITY OF NOTRE DAME DU LAC, priority 2023, published 2026)

What was measured:
NRS144 strain = test: MIC of the inducer CBAP; assay type: cell-based, Staphylococcus aureus
[1] = tested on: modified bla operons (pCN52RI, pCN52RI-venus, pCN52RI-mCherry); test: Induction of fluorescent reporters of the bla operon by CBAP; assay type: cell-based, S. aureus NRS144
From the text: FIG. 4. Comparison of the fluorescence intensity produced by S. aureus NRS144 strains harboring pCN52RI, pCN52RI-venus and pCN52RI-mCherry. Each fluorescent protein was induced by the β-lactam antibiotic CBAP. The ratios of fluorescence in the presence of CBAP to that in the absence of it were 3, 10 and 5 for GFP, Venus, and mCherry, respectively. Data were derived from four independent assays.
Live-Cell Fluorescent Assay in Discovery and Mechanism of Action. We conceived of fluorescent constructs in the bla operon, for the purpose of screening (FIG. 2a). We removed the gene for the β-lactamase (blaZ) and put in its place individually the genes for the Green Fluorescent Protein (GFP), Venus (a yellow-fluorescent protein) or mCherry (a red-fluorescent protein) in the template plasmid pCN52. The three plasmids were named pCN52RI, pCN52RI-Venus and pCN52RI-mCherry, respectively. The genes for the fluorescent proteins were transcribed under the promoter of the blaZ gene and were regulated by the proteins BlaR and BlaI, as is the case for the wild-type bla operon.
We transformed separately S. aureus NRS144—a laboratory strain that accepts a foreign gene and harbors neither the bla nor the mec operons—with each of these plasmids. […] When induced, the fluorescent protein is produced and is detected (akin to expression of the resistance genes blaZ or mecA in typical MSSA and MRSA). […] The transformed strains were grown in tryptic soy broth medium for overnight culture and strain maintenance and incubated in cation-adjusted Mueller-Hinton broth medium for inhibitor screening in a 96-well microplate format. The culture without CBAP addition was the negative control. In order to select a desirable reporter construct, we compared the intensity of the fluorescence produced from each construct at the wavelengths given in FIG. 2a using the Cytation-5 multi-mode microplate reader. Among the three constructs, pCN52RI-Venus produced the best fluorescence intensity and pCN52RI-mCherry was the second best (FIG. 4).
Construction of the fluorescent-reporter systems. […]

## 2-(2-carboxyphenyl)-benzoyl-6-aminopenicillanic acid [CBAP]
NRS144 strain
  minimal-inhibitory concentration (MIC): 64 µg/mL
[1]; GFP (pCN52RI)
  ratio of fluorescence in the presence of CBAP to that in the absence: 3
[1]; Venus (pCN52RI-venus)
  ratio of fluorescence in the presence of CBAP to that in the absence: 10
[1]; mCherry (pCN52RI-mCherry)
  ratio of fluorescence in the presence of CBAP to that in the absence: 5
